The source of these data is US8779005B2, “Salts of desvenlafaxine and a method of their preparation” (Zentiva k.s., priority 2009, dated 2014).

Data set [1] is described as follows: Measurement of the dissolution rate (USP Wood Apparatus, rotary disk method). Format: physicochemical. The following applies: for Dissolution rate constants at pH 2: pH 2 (0.01 M HCl), 37° C.; for Dissolution rate constants at pH 2 / Dissolution rate constants at pH 6.8: rotary disk; for Dissolution rate constants at pH 6.8: phosphate buffer of pH 6.8, 37° C. Here is the method:
Measurement of the Dissolution Rate The dissolution rate of desvenlafaxine salts (Table 2) in water at various pH values was measured in a Varian-Vankel System, USP Wood Apparatus (rotary disk method). A disk with the diameter of 5 mm was prepared by compression from about 0.2 g of the substance.

The nature of data set [2]: Measurement of equilibrium solubility. The following applies: 24-hour stirring; for solubility thermodynamic at 24 h: 25 °C, thermodynamic from solid; for Equilibrium solubility at pH 2: pH 2 (0.01 M HCl), 25° C.; for Equilibrium solubility at pH 6.8: phosphate buffer of pH 6.8, 25° C.
For data set [3] the following is noted: in vivo; cited from earlier work.
[4] abbreviates: 0.01 M HCl, pH 2, simulated gastric fluid, Equilibrium solubility at pH 2, pH 2 (0.01 M HCl).
The mark [5] stands for this setting: phosphate buffer, pH 6.8, aqueous buffer, Equilibrium solubility at pH 6.8, phosphate buffer of pH 6.8, 25° C.
The mark [6] stands for this setting: dihydrate, Hemioxalate Trihydrate.

Consider `CN(C)CC(c1ccc(O)cc1)C1(O)CCCCC1.O=C(O)C(=O)O` (centres unmarked) [Hydrogen oxalate hydrate, Desvenlafaxine Hydrogen Oxalate Hydrate], for which, in data set [1], the “Dissolution rate constants at pH 2” value worked out at 7.1 mg/cm^2/min and the “Dissolution rate constants at pH 6.8” value was found to be 6.0 mg/cm^2/min. This compound came in with a solubility (thermodynamic) at 24 h in data set [2] (setting [4]) of 89 mg/mL. This compound displayed a solubility (thermodynamic) at 24 h in data set [2] (setting [5]) of 63 mg/mL.
Consider `CN(C)CC(c1ccc(O)cc1)C1(O)CCCCC1.O=C(O)/C=C/C(=O)O` (centres unmarked) [Hydrogen fumarate hydrate, Desvenlafaxine hydrogen fumarate], for which, in data set [1], the “Dissolution rate constants at pH 2” value is on record as 0.8 mg/cm^2/min and the “Dissolution rate constants at pH 6.8” value came to 0.8 mg/cm^2/min. The compound also yielded a solubility (thermodynamic) at 24 h in data set [2] (setting [4]) of 8 mg/mL. The compound also yielded a thermodynamic solubility at 24 h in data set [2] (setting [5]) of 8 mg/mL.
Take `CN(C)CC(c1ccc(O)cc1)C1(O)CCCCC1` (centres unmarked) [Hemioxalate, anhydrous, Anhydrous Desvenlafaxine Hemioxalate]: in data set [1], the “Dissolution rate constants at pH 2” value came to 6.6 mg/cm^2/min and the “Dissolution rate constants at pH 6.8” value was 5.9 mg/cm^2/min. In data set [2], the “Equilibrium solubility at pH 2” value amounted to 92 mg/ml and the “Equilibrium solubility at pH 6.8” value was 80 mg/ml.
On to `CN(C)CC(c1ccc(O)cc1)C1(O)CCCCC1` (centres unmarked) [Hemioxalate, hydrate, Desvenlafaxine Hemioxalate Trihydrate], for which, in data set [1] (Hemioxalate Trihydrate), the “Dissolution rate constants at pH 2” value is reported as over 10 mg/cm^2/min and the “Dissolution rate constants at pH 6.8” value is over 10 mg/cm^2/min. In addition, in data set [2] (setting [6]), the “Equilibrium solubility at pH 2” value is listed as 86 mg/ml and the “Equilibrium solubility at pH 6.8” value amounted to 71 mg/ml.
Turning to `CN(C)CC(c1ccc(O)cc1)C1(O)CCCCC1.O=C(O)CCC(=O)O` (centres unmarked) [Hydrogen succinate hydrate, Desvenlafaxine hydrogen succinate], in data set [1] (in water, compared with hydrogen fumarate), the “Dissolution speed in water relative to hydrogen fumarate” value is “approximately twice as fast”. Further, in data set [1], the “Dissolution rate constants at pH 2” value amounted to 3.1 mg/cm^2/min and the “Dissolution rate constants at pH 6.8” value was found to be 3.2 mg/cm^2/min. The compound also gave a thermodynamic solubility at 24 h in data set [2] (setting [4]) of 53 mg/mL. The same compound gave a solubility (thermodynamic) at 24 h in data set [2] (setting [5]) of 58 mg/mL. In data set [3], the “Biological availability (absorption of desvenlafaxine in rat intestine) relative to hydrogen fumarate” value is recorded as “roughly three times higher”.
Turning to `CN(C)CC(c1ccc(O)cc1)C1(O)CCCCC1` (centres unmarked) [Base, Desvenlafaxine], in data set [1], the “Dissolution rate constants at pH 2” value is given as 0.6 mg/cm^2/min and the “Dissolution rate constants at pH 6.8” value was 0.2 mg/cm^2/min. In data set [2], the “Equilibrium solubility at pH 2” value was found to be 2 mg/ml and the “Equilibrium solubility at pH 6.8” value is 4 mg/ml.
